For assay [1], the target named is T1, IMP-1 (Serratia marcescens, UniProt P52699). Description: Kinetic inhibition assay of IMP-1 (hydrolysis of benzyl penicillin followed at 235 nm), Kic. In kind it is biochemical. From the text: The IMP-1 enzyme, lacking the first 21 signal peptide amino acid residues, was expressed and purified using the protocol of Vella et al.[45–46] The reported methods for monitoring of MBLs activities are based on the consequences of the hydrolysis of β-lactam ring of substrates. The MBL-catalysed reaction is usually monitored by following the changing absorbance at the wavelength where the difference in the molar absorptivity, ΔɛM, is maximal or near the maximum value. There are a few β-lactam substrates which can be used for in vitro assays of MBLs inhibitors. CENTA,[47] a type of cephalosporin, and Penicillin G (benzyl penicillin)[48] are well-known substrates due to commercial availability, inexpensive prices and comfort of their syntheses. For this study, Penicillin G was used as CENTA was not compatible with the inhibitor type as reported by Arjomandi et al.[1] The monitoring of hydrolysis of benzyl penicillin by the synthesized compounds was carried out in UV plate at wavelength 235 nm as no chromosphere is released (Figure 7). The concentration of benzyl penicillin is reduced upon hydrolysis by IMP-1 causing a decrease in the absorption at 235 nm over the time, thereby allowing a way to monitor the reaction. Inhibitors of metallo-β-lactamase decrease the rate of hydrolysis of benzyl penicillin, thus, providing a way of measuring the activities of inhibitors against MBLs.
Benzyl penicillin solutions were prepared fresh at the time of assay as their activities will change and stop after 24 h even with keeping in the fridge.[1] In the first step, the inhibitory activities (IC50 values) of the inhibitors 2a–k were measured by a screening assay which evaluated the residual activity of the enzyme. […] Further kinetic analyses then allowed the determination of Kic values of these compounds based on the procedure reported by Arjomandi et al.[1] Inhibition assays for IMP-1 were performed in 96 well 400 µL UV multi-titre plates using a UV multi-plate spectrophotometer. The hydrolysis rate of benzyl penicillin (penicillin G sodium salt) was measured at λ = 235 nm.[49] The initial screening assay (IC50 values) was performed in duplicate, with benzyl penicillin as the substrate and HEPESX (50 mM HEPES, 0.1 M NaCl, […], pH 7.0) as the buffer at 25 °C. The final concentrations of enzyme and benzyl penicillin were 10 nM and 500 µM, respectively. Bovine serum albumin (a final concentration of 20 µg/mL) was added to the enzyme for stability. For each well, 196 µL substrate and 4 µL inhibitor were added followed by the addition of 200 µL of enzyme. The rate of the hydrolysis of substrate was recorded for 5 min. To measure Kic value, four solutions with different concentrations for each molecule were prepared and then were assayed based on the aforementioned procedure while the concentrations of substrate in wells were 200, 400, 600, 800 and 1000 µM. The raw kinetic data were analysed by non-linear regression using the Win Curve Fit program (Kevin Raner Software) and the Kic value was calculated for each molecule.[1] The Kic values of molecules 2a–k are in the range of 1.04–4.77 µM which was unexpected based on the computational modelling results. Although the introduced compounds are still potent enzyme-based inhibitors, they are nearly at least ten times less as potent as the lead inhibitor is. Due to the less inhibition activities of the synthesized molecules in compare to the reference compound, their cell-based assays have not carried out.

Assay [2] concerns the target T1, IMP-1. As to conditions: read-out: Kic; against IMP-1; reference inhibitor; cited from earlier work.

SMILES strings stand for the structures. Like-named read-outs stand apart in the source and are kept apart here.

T1 sequence (P52699 22-246 limits assumed): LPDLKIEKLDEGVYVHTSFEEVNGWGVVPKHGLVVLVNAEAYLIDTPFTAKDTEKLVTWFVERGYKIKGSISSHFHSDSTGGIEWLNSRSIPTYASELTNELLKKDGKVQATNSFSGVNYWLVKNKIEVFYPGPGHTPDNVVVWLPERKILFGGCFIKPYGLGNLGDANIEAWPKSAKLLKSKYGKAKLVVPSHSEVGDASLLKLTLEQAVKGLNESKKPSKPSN

Take `O=C(CS)N[C@@H](Cc1ccc(OCc2ccc([N+](=O)[O-])cc2)cc1)C(=O)O` [Compound 2i, (S)-2-(2-Mercaptoacetamido)-3-(4-((4-nitrobenzyl)oxy)phenyl)propanoic acid]: the Ki in assay [1] was 3200 ± 620 nM.

Compound `O=C(CS)N[C@@H](Cc1ccc(OCc2ccccc2[N+](=O)[O-])cc1)C(=O)O` [Compound 2g, (S)-2-(2-Mercaptoacetamido)-3-(4-((2-nitrobenzyl)oxy)phenyl)propanoic acid] came in with a Ki in assay [1] of 1650 ± 340 nM.

Regarding `O=C(CS)N[C@@H](Cc1ccc(OCc2cccc(Cl)c2)cc1)C(=O)O` [Compound 2e, (S)-3-(4-((3-chlorobenzyl)oxy)phenyl)-2–(2-mercaptoacetamido)propanoic acid], the Ki in assay [1] was 4770 ± 2810 nM.

Take `O=C(CS)N[C@@H](Cc1ccc(OCc2ccccc2)cc1)C(=O)O` [Compound 1, L-benzyl tyrosine thiol carboxylic acid]: the Ki in assay [2] was 86 ± 24 nM.

With `O=C(CS)N[C@@H](Cc1ccc(OCc2ccccc2Cl)cc1)C(=O)O` [Compound 2d, (S)-3-(4-((2-Chlorobenzyl)oxy)phenyl)-2-(2-mercaptoacetamido)propanoic acid], in assay [1], the Ki was determined as 1810 ± 900 nM.

Compound `Cc1ccc(COc2ccc(C[C@H](NC(=O)CS)C(=O)O)cc2)cc1` [Compound 2c, (S)-2-(2-Mercaptoacetamido)-3-(4-((4-methylbenzyl)oxy)phenyl)propanoic acid] gave a Ki in assay [1] of 1070 ± 210 nM.

In assay [1], `Cc1ccccc1COc1ccc(C[C@H](NC(=O)CS)C(=O)O)cc1` [Compound 2a, (S)-2-(2-Mercaptoacetamido)-3-(4-((2-methylbenzyl)oxy)phenyl)propanoic acid] had a Ki of 1040 ± 280 nM.

For the compound `O=C(CS)N[C@@H](Cc1ccc(OCc2ccc(Cl)cc2)cc1)C(=O)O` [Compound 2f, (S)-3-(4-((4-Chlorobenzyl)oxy)phenyl)-2-(2-mercaptoacetamido)propanoic acid], the Ki in assay [1] was found to be 3200 ± 590 nM.

In assay [1], `O=C(CS)N[C@@H](Cc1ccc(OCc2cccc(Br)c2)cc1)C(=O)O` [Compound 2j, (S)-3-(4-((3-Bromobenzyl)oxy)phenyl)-2-(2-mercaptoacetamido)propanoic acid] showed a Ki of 3140 ± 710 nM.

As to `Cc1cccc(COc2ccc(C[C@H](NC(=O)CS)C(=O)O)cc2)c1` [Compound 2b, (S)-2-(2-Mercaptoacetamido)-3-(4-((3-methylbenzyl)oxy)phenyl)propanoic acid], the Ki in assay [1] was 1150 ± 490 nM.

For the compound `O=C(CS)N[C@@H](Cc1ccc(OCc2ccc(Br)cc2)cc1)C(=O)O` [Compound 2k, (S)-3-(4-((4-Bromobenzyl)oxy)phenyl)-2-(2-mercaptoacetamido)propanoic acid], the Ki in assay [1] is 3300 ± 900 nM.

For the compound `O=C(CS)N[C@@H](Cc1ccc(OCc2cccc([N+](=O)[O-])c2)cc1)C(=O)O` [Compound 2h, (S)-2-(2-Mercaptoacetamido)-3-(4-((3-nitrobenzyl)oxy)phenyl)propanoic acid], the Ki in assay [1] was found to be 2860 ± 1230 nM.

The values above are taken from paper PMC8853707, “Synthesis and enzyme-based evaluation of analogues L-tyrosine thiol carboxylic acid inhibitor of metallo-β-lactamase IMP-1” (Journal of Enzyme Inhibition and Medicinal Chemistry, 2019).
